The text below walks through data of patent US9980943B2, “Methods of treating muscular dystrophy” (BOARD OF REGENTS OF THE NEVADA SYSTEM OF HIGHER EDUCATION, …, priority 2013, dated 2018).

Read-outs that look alike come from different tables or passages of the source.

Common to all, as to assay type: cell-based, mouse
Assay [1] relates to α7 integrin (LacZ reporter in α7βgal+/− myoblasts). Nature of the assay: Myoblast α7+/LacZ integrin FDG assay (Burkin assay in myoblasts, 96-well). Conditions: α7+/LacZ myoblasts, 96-well; for fold induction at 0.5 µM / fold induction at 1 µM / fold induction at 5 µM / fold induction at 10 µM / fold induction at 20 µM / fold induction at 40 µM: Mus musculus, Myoblast, 48 h.
The test system of assay [2] is β-galactosidase in CMV-LacZ C2C12 myotubes. Nature of the assay: CMV-LacZ secondary screen in C2C12 myotubes (β-Gal stabilizing assay). Conditions: for fold induction at 5 µM / fold induction at 10 µM / fold induction at 20 µM / fold induction at 40 µM: Mus musculus, C2C12 CMV-LacZ myotubes, fold relative to DMSO; for CMV-LACZ in Myotubes (β-galactosidase activity relative to DMSO): CMV-LacZ C2C12 myotubes, 96-well format. The gist of the method:
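CMV-LacZ C2C12 line (clonal, FDG-screened); myoblasts/myotubes dosed 0.5–40 μM (0.5, 1, 5, 10, 20, 40 μM); n=2 per point; β-gal stabilization read-out.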

The subject of assay [3] is α7 integrin (LacZ reporter in α7+/LacZ myotubes). Nature of the assay: Myotube α7 integrin FDG assay (Burkin assay in myotubes, 96-well). Conditions: myotubes; for fold induction at 0.5 µM / fold induction at 1 µM / fold induction at 5 µM / fold induction at 10 µM / fold induction at 20 µM / fold induction at 40 µM: Mus musculus, Myotube.
Setting [4] is: 0.5 uM, read-out: Burkin Assay in Myoblasts, value relative to DMSO.
The mark [5] stands for this setting: 1 uM, read-out: Burkin Assay in Myoblasts, value relative to DMSO.
The mark [6] stands for this setting: 5 uM, read-out: Burkin Assay in Myoblasts, value relative to DMSO.
Where [7] appears, read: 10 uM, read-out: Burkin Assay in Myoblasts, value relative to DMSO.
The mark [8] stands for this setting: 20 uM, read-out: Burkin Assay in Myoblasts, value relative to DMSO.
Where [9] appears, read: 40 uM, read-out: Burkin Assay in Myoblasts, value relative to DMSO.
The mark [10] stands for this setting: C2C12, read-out: CMV-LACZ in Myotubes, signal relative to DMSO, 5 uM.
Setting [11] is: C2C12, read-out: CMV-LACZ in Myotubes, signal relative to DMSO, 10 uM.
[12] abbreviates: C2C12, read-out: CMV-LACZ in Myotubes, signal relative to DMSO, 20 uM.
Where [13] appears, read: C2C12, read-out: CMV-LACZ in Myotubes, signal relative to DMSO, 40 uM.
[14] abbreviates: 0.5 uM, read-out: Burkin Assay in Myotubes (signal relative to DMSO).
Setting [15] is: 1 uM, read-out: Burkin Assay in Myotubes (signal relative to DMSO).
Where [16] appears, read: 5 uM, read-out: Burkin Assay in Myotubes (signal relative to DMSO).
Where [17] appears, read: 10 uM, read-out: Burkin Assay in Myotubes (signal relative to DMSO).
Where [18] appears, read: 20 uM, read-out: Burkin Assay in Myotubes (signal relative to DMSO).
[19] abbreviates: 40 uM, read-out: Burkin Assay in Myotubes (signal relative to DMSO).

Consider `COc1ccc(NC(=O)c2ccc3nc(C)sc3c2)cc1` [MLS001204005-01], for which the values for the fold induction at 0.5 µM in assay [1] (setting [4]) and in assay [3] (setting [14]) were 1.08 and 0.903, respectively. Besides, the results for the fold induction at 1 µM in assay [1] (setting [5]) and in assay [3] (setting [15]) were 1.15 and 0.987, respectively. The fold induction at 5 µM was determined as 1.02 in assay [1] (setting [6]), 0.94 in assay [2] (setting [10]) and 0.763 in assay [3] (setting [16]). In addition, the results for the fold induction at 10 µM in assay [1] (setting [7]), in assay [2] (setting [11]) and in assay [3] (setting [17]) were 1.24, 1.14 and 1.02, respectively. Further, the figures for the fold induction at 20 µM in assay [1] (setting [8]), in assay [2] (setting [12]) and in assay [3] (setting [18]) were 1.23, 1.02 and 0.818, respectively. For the same molecule, the fold induction at 40 µM came to 1.17 in assay [1] (setting [9]), 0.781 in assay [2] (setting [13]) and 1.16 in assay [3] (setting [19]).

In the case of `O=C(NCc1ccccc1)C(c1ccc(O)cc1)N(C(=O)Cn1nnc(-c2cccs2)n1)c1ccc2c(c1)OCCO2` (stereo not drawn) [MLS000123454-01], the “Burkin Assay in Myoblasts, value relative to DMSO” value in assay [1] (0.5 uM) was 0.8934; in assay [1] (1 uM), 0.8234; in assay [1] (5 uM), 0.7862; in assay [1] (10 uM), 0.8621; in assay [1] (20 uM), 1.519; in assay [1] (40 uM) it was 1.013. In addition, the “CMV-LACZ in Myotubes (β-galactosidase activity relative to DMSO)” value in assay [2] (5 uM) turned out to be 0.9353; in assay [2] (10 uM), 0.9323; in assay [2] (20 uM), 0.8796; in assay [2] (40 uM), 1.055. The “Burkin Assay in Myotubes (signal relative to DMSO)” value turned out to be 1.067 in assay [3] (0.5 uM); 0.8963 in assay [3] (1 uM); 1.047 in assay [3] (5 uM); 1.083 in assay [3] (10 uM); 0.6841 in assay [3] (20 uM); 0.8852 in assay [3] (40 uM).

As to `O=C(O)CCn1cc(/C=C2/NC(=S)N(c3ccccc3)C2=O)c(-c2ccccc2)n1` [MLS000585616-01], the figures for the fold induction at 0.5 µM in assay [1] (setting [4]) and in assay [3] (setting [14]) were 0.681 and 0.999, respectively. Further, the fold induction at 1 µM in assay [1] (setting [5]) was determined as 0.943; in assay [3] (setting [15]), 0.958. Besides, the fold induction at 5 µM came to 1.01 in assay [1] (setting [6]), 0.903 in assay [2] (setting [10]) and 1.58 in assay [3] (setting [16]). The fold induction at 10 µM in assay [1] (setting [7]) stood at 0.977; in assay [2] (setting [11]), 0.791; in assay [3] (setting [17]) it was 1.15. Besides, the fold induction at 20 µM in assay [1] (setting [8]) worked out at 0.935; in assay [2] (setting [12]), 0.91; in assay [3] (setting [18]), 1.03. The fold induction at 40 µM in assay [1] (setting [9]) is 0.932; in assay [2] (setting [13]), 0.879; in assay [3] (setting [19]), 0.962.

On to `COc1ccc(Nc2ncnc3ccc(Br)cc23)cc1OC` [MLS001196422-01], for which the fold induction at 0.5 µM in assay [1] (0.5 uM, read-out: Burkin Assay in Myoblasts, signal relative to DMSO) amounted to 0.746; in assay [3] (0.5 uM, read-out: Burkin Assay in Myotubes, α7 integrin LacZ reporter signal relative to DMSO), 0.976. The fold induction at 1 µM in assay [1] (1 uM, read-out: Burkin Assay in Myoblasts, signal relative to DMSO) was 0.978; in assay [3] (1 uM, read-out: Burkin Assay in Myotubes, α7 integrin LacZ reporter signal relative to DMSO), 1.14. Moreover, the fold induction at 5 µM in assay [1] (5 uM, read-out: Burkin Assay in Myoblasts, signal relative to DMSO) was 1.23; in assay [2] (5 uM, read-out: CMV-LACZ in Myotubes, signal relative to DMSO), 0.896; in assay [3] (5 uM, read-out: Burkin Assay in Myotubes, α7 integrin LacZ reporter signal relative to DMSO), 1.19. For the same molecule, the fold induction at 10 µM in assay [1] (10 uM, read-out: Burkin Assay in Myoblasts, signal relative to DMSO) was 1.33; in assay [2] (10 uM, read-out: CMV-LACZ in Myotubes, signal relative to DMSO), 0.893; in assay [3] (10 uM, read-out: Burkin Assay in Myotubes, α7 integrin LacZ reporter signal relative to DMSO), 1.32. Moreover, the fold induction at 20 µM worked out at 1.25 in assay [1] (20 uM, read-out: Burkin Assay in Myoblasts, signal relative to DMSO); 0.83 in assay [2] (20 uM, read-out: CMV-LACZ in Myotubes, signal relative to DMSO); 1.09 in assay [3] (20 uM, read-out: Burkin Assay in Myotubes, α7 integrin LacZ reporter signal relative to DMSO). For the same molecule, the fold induction at 40 µM amounted to 1 in assay [1] (40 uM, read-out: Burkin Assay in Myoblasts, signal relative to DMSO); 0.856 in assay [2] (40 uM, read-out: CMV-LACZ in Myotubes, signal relative to DMSO); 0.975 in assay [3] (40 uM, read-out: Burkin Assay in Myotubes, α7 integrin LacZ reporter signal relative to DMSO).

For the molecule `CC1(C)Cc2c(ccc3ccccc23)C(=O)N1` [MLS000525404-01], the fold induction at 0.5 µM came to 1 in assay [1] (setting [4]) and 1.04 in assay [3] (setting [14]). The fold induction at 1 µM turned out to be 1.08 in assay [1] (setting [5]) and 1.04 in assay [3] (setting [15]). The fold induction at 5 µM in assay [1] (setting [6]) is 1.12; in assay [2] (setting [10]) it was 0.76; in assay [3] (setting [16]), 1.12. For the same molecule, the fold induction at 10 µM is 1.28 in assay [1] (setting [7]), 0.873 in assay [2] (setting [11]) and 1.09 in assay [3] (setting [17]). Besides, the fold induction at 20 µM in assay [1] (setting [8]) was determined as 1.46; in assay [2] (setting [12]), 0.841; in assay [3] (setting [18]), 1.19. Moreover, the fold induction at 40 µM came to 1.79 in assay [1] (setting [9]), 0.75 in assay [2] (setting [13]) and 1.35 in assay [3] (setting [19]).

As for `CN(C)S(=O)(=O)c1ccc(C(=O)Nc2nc3ccccc3[nH]2)cc1` [MLS000774940-01], the “Burkin Assay in Myoblasts, value relative to DMSO” value in assay [1] (0.5 uM) was 0.9309; in assay [1] (1 uM) it was 0.8928; in assay [1] (5 uM) it was 1.095; in assay [1] (10 uM) it was 1.043; in assay [1] (20 uM), 0.858; in assay [1] (40 uM) it was 0.7761. The “CMV-LACZ in Myotubes (β-galactosidase activity relative to DMSO)” value worked out at 0.954 in assay [2] (5 uM), 0.8604 in assay [2] (10 uM), 1.171 in assay [2] (20 uM) and 1.005 in assay [2] (40 uM). Besides, the “Burkin Assay in Myotubes (signal relative to DMSO)” value turned out to be 0.9469 in assay [3] (0.5 uM); 0.9777 in assay [3] (1 uM); 1.01 in assay [3] (5 uM); 0.9908 in assay [3] (10 uM); 1.084 in assay [3] (20 uM); 0.878 in assay [3] (40 uM).
